# Experimental data: publication PMC9894685, “Abscisic acid agonists suitable for optimizing plant water use” (Frontiers in Plant Science, 2023)
# Columns and labels:
# RCAR1-ABI2 = biological target: T1, RCAR1-ABI2 (Arabidopsis thaliana, UniProt O04719+Q84MC7); assay: In vitro phosphatase assay, ABI2 with RCAR1; type: biochemical; settings: for Statistical significance of RCAR1-mediated inhibition of ABI2 phosphatase activity vs ABA / Statistical significance of RCAR1-mediated inhibition of ABI2 phosphatase activity vs CCP1: Fig. 3B
# T1 construct: 6xHis (N); made in house; host or cells: Escherichia coli BL21
# T1 sequence (Q84MC7 1-187): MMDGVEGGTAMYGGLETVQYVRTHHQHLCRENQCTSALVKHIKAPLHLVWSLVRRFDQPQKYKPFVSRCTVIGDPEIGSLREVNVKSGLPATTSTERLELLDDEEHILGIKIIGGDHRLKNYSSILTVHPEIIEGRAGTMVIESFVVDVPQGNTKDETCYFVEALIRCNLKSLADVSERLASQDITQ
# T1 sequence (O04719 1-423): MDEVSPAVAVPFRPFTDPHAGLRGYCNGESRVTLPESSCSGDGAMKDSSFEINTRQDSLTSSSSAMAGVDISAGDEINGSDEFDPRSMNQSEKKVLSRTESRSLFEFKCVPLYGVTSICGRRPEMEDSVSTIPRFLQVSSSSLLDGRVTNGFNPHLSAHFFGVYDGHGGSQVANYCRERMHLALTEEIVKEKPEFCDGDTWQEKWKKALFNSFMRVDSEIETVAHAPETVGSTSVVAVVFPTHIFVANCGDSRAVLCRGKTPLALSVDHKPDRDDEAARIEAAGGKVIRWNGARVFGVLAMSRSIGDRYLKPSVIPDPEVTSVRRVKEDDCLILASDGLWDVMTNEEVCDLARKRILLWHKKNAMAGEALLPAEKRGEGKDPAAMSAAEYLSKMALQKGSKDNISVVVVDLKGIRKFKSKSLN
# Protocol: Expression, purification, and analysis of RCAR and PP2C proteins were performed essentially as described ([Ruschhaupt et al., 2019]). Briefly, the ABA receptors RCAR1, RACR8, and RCAR11 were expressed with an aminoterminal histidine tag using the pSEVA431_LII_6xHIS::RCAR1/RCAR8/RCAR11. ABA coreceptors were expressed as histidine-tagged fusions with the maltose-binding protein using the pSEVA431_LII_6xHIS::MBP::ABI2/HAB1. All constructs were transformed and expressed in Escherichia coli strain BL21 and purified to homogeneity according to supplier’s instruction (GE Healthcare, Chicago, USA). The receptor assay was performed with 100 nM PP2C and a two-fold molar excess of RCAR. Values are means ± SD of three replicates. […] The maximum inhibition was set to 100% in the figures. The phosphatase activity was measured using 4-methylumbelliferyl-phosphate as a substrate ([Meinhard and Grill, 2001]). The increase in fluorescence was recorded over 25 min with excitation and emission wavelengths at 360 and 460 nm, respectively, using a Synergy 2 plate reader (Bio-Tec, Winooski, USA).
# RCAR11-ABI2 = assay: Yeast ABA signal pathway LUC reporter, RCAR11-ABI2; type: cell-based, Arabidopsis thaliana
# Protocol: (§1) The yeast cultivation and the life luciferase assay were performed as described ([Ruschhaupt et al., 2019]). Briefly, the reporter yeast expressing an ABA-dependent luciferase gene (LUC) was transformed with different combinations of ABA signaling components as indicated. Golden gate cloning ([Binder et al., 2014]) was used to construct pYEAST_LII_5‐6_CEN_URA vector with TDH3 promoter and TDH1 terminator (tTDH1), pYEAST_LII_1‐2_CEN_LEU vector with GK1 promoter and tTDH1, and pYEAST_LII_3‐4_CEN_TRP with the GAL1 promoter (pGAL1) and tTDH1 to express RCARs, PP2Cs, and OST1 (SnRK2.6), respectively ([Ruschhaupt et al., 2019]). The expression of ABF2 in yeast relies on a modified pGREG503 vector, in which pGAL1 ([Jansen et al., 2005]) was replaced by the ADH1 promoter.
# (§2) Colonies of freshly transformed cells were inoculated in 0.5 mL supplemented synthetic dextrose (SD) medium and incubated at 30°C in a gyratory shaker (Thermoshake-THO500, Gerhardt, Königswinter, Germany) at 200 rpm for 16-18 h. After overnight growth, the cells were harvested and washed in SD medium followed by inoculation in SD medium containing 2% galactose for induction of SnRK2 kinases under the control of the GAL1 promoter and supplementation with ligands at indicated concentrations, to an OD600 of 0.2 in flat-bottom 96-well plates (CytoOne, Starlab, Hamburg, Germany). Yeast cultures were incubated at 30°C and 200 rpm for 16-18 h before determination of LUC activity and cell density. Light emission of yeasts was detected in a HIDEX plate luminometer (HIDEX, Turku, Finland) after injection of 100 µL freshly prepared luciferin substrate (1 mM D-luciferin, Promega) provided in 100 mM citric acid, pH 3 ([Leskinen et al., 2003]) for 5 s and was corrected for background. The LUC activity was normalized to the cell density (OD600) measured in 96-well flat plates (Sarstedt, Nümbrecht, Germany). LUC activity is given as the ratio of light emission to OD600 in counts per second.
# RCAR8/PYL5-ABI2 = test system: T2, RCAR8/PYL5-ABI2; assay: Yeast ABA signal pathway LUC reporter, RCAR8-ABI2; type: cell-based, Arabidopsis thaliana
# T2 construct: expressed in transfected cells; host or cells: yeast (LUC reporter strain)
# Protocol: as §1, §2
# [1] = test system: Arabidopsis aba2-1 protoplasts; assay: Transient ABA response in Arabidopsis protoplasts (pRD29B::LUC, RCAR11 and ABI2 effectors); type: cell-based, Arabidopsis thaliana; settings: aba2-1 protoplasts, 18 h ligand exposure
# Protocol: Preparation of Arabidopsis protoplasts, transfection of the effector DNA, and analysis of LUC activity were performed as described ([Tischer et al., 2017]). In essence, 10^5 mesophyll protoplasts from leaves of the ABA deficient mutant aba2-1 ([Schwartz et al., 1997]) were transfected with 4 µg DNA of the pRD29B::LUC construct as an ABA-responsive reporter and 3 µg of p35S::GUS (β-glucuronidase reporter gene) expression cassette as an internal control for normalization. In addition, 3 µg p35S::RCAR11 or the empty vector with the same expression cassette were co-expressed with 0.1 µg p35S::ABI2 effector constructs ([Tischer et al., 2017]), and the ligand-dependent induction of ABA-responsive reporter expression were assessed after incubation at 22°C. The expression of LUC and GUS was determined 18 h after transfection and ligand administration.
compound,measurement,setting,value
CCC(=C/C(=O)O)/C=C/C(O)(C(C)C)C1(C#N)CC1 (centres unmarked) [CCP2],Statistical significance of RCAR1-mediated inhibition of ABI2 phosphatase activity vs ABA,RCAR1-ABI2; 0.003 µM,"ns (Otherwise, the difference is regarded as insignificant indicated as “ns”)"
same,Statistical significance of RCAR1-mediated inhibition of ABI2 phosphatase activity vs CCP1,RCAR1-ABI2; 0.003 µM,"ns (Otherwise, the difference is regarded as insignificant indicated as “ns”)"
same,Statistical significance of RCAR1-mediated inhibition of ABI2 phosphatase activity vs ABA,RCAR1-ABI2; 0.01 µM,"ns (Otherwise, the difference is regarded as insignificant indicated as “ns”)"
same,Statistical significance of RCAR1-mediated inhibition of ABI2 phosphatase activity vs CCP1,RCAR1-ABI2; 0.01 µM,"ns (Otherwise, the difference is regarded as insignificant indicated as “ns”)"
same,Statistical significance of RCAR1-mediated inhibition of ABI2 phosphatase activity vs ABA,RCAR1-ABI2; 0.03 µM,s (P < 0.05 (one-way ANOVA) is considered as a significant difference and expressed as “s”)
same,Statistical significance of RCAR1-mediated inhibition of ABI2 phosphatase activity vs CCP1,RCAR1-ABI2; 0.03 µM,"ns (Otherwise, the difference is regarded as insignificant indicated as “ns”)"
same,Statistical significance of RCAR1-mediated inhibition of ABI2 phosphatase activity vs ABA,RCAR1-ABI2; 0.1 µM,s (P < 0.05 (one-way ANOVA) is considered as a significant difference and expressed as “s”)
same,Statistical significance of RCAR1-mediated inhibition of ABI2 phosphatase activity vs CCP1,RCAR1-ABI2; 0.1 µM,s (P < 0.05 (one-way ANOVA) is considered as a significant difference and expressed as “s”)
same,IC50 relative to ABA (fold higher),RCAR1-ABI2; 100 nM ABI2 and 200 nM RCAR1,approximately 100 fold
same,Statistical significance of RCAR1-mediated inhibition of ABI2 phosphatase activity vs ABA,RCAR1-ABI2; 0.3 µM,s (P < 0.05 (one-way ANOVA) is considered as a significant difference and expressed as “s”)
same,Statistical significance of RCAR1-mediated inhibition of ABI2 phosphatase activity vs CCP1,RCAR1-ABI2; 0.3 µM,s (P < 0.05 (one-way ANOVA) is considered as a significant difference and expressed as “s”)
same,Statistical significance of RCAR1-mediated inhibition of ABI2 phosphatase activity vs ABA,RCAR1-ABI2; 1 µM,s (P < 0.05 (one-way ANOVA) is considered as a significant difference and expressed as “s”)
same,Statistical significance of RCAR1-mediated inhibition of ABI2 phosphatase activity vs CCP1,RCAR1-ABI2; 1 µM,"ns (Otherwise, the difference is regarded as insignificant indicated as “ns”)"
same,Statistical significance of RCAR1-mediated inhibition of ABI2 phosphatase activity vs ABA,RCAR1-ABI2; 3 µM,s (P < 0.05 (one-way ANOVA) is considered as a significant difference and expressed as “s”)
same,Statistical significance of RCAR1-mediated inhibition of ABI2 phosphatase activity vs CCP1,RCAR1-ABI2; 3 µM,"ns (Otherwise, the difference is regarded as insignificant indicated as “ns”)"
same,Statistical significance of RCAR1-mediated inhibition of ABI2 phosphatase activity vs ABA,RCAR1-ABI2; 10 µM,s (P < 0.05 (one-way ANOVA) is considered as a significant difference and expressed as “s”)
same,Statistical significance of RCAR1-mediated inhibition of ABI2 phosphatase activity vs CCP1,RCAR1-ABI2; 10 µM,"ns (Otherwise, the difference is regarded as insignificant indicated as “ns”)"
same,Statistical significance of RCAR1-mediated inhibition of ABI2 phosphatase activity vs ABA,RCAR1-ABI2; 30 µM,s (P < 0.05 (one-way ANOVA) is considered as a significant difference and expressed as “s”)
same,Statistical significance of RCAR1-mediated inhibition of ABI2 phosphatase activity vs CCP1,RCAR1-ABI2; 30 µM,"ns (Otherwise, the difference is regarded as insignificant indicated as “ns”)"
same,Statistical significance of RCAR1-mediated inhibition of ABI2 phosphatase activity vs ABA,RCAR1-ABI2; 100 µM,s (P < 0.05 (one-way ANOVA) is considered as a significant difference and expressed as “s”)
same,Statistical significance of RCAR1-mediated inhibition of ABI2 phosphatase activity vs CCP1,RCAR1-ABI2; 100 µM,"ns (Otherwise, the difference is regarded as insignificant indicated as “ns”)"
same,ABA-agonistic activity in yeast LUC reporter,"RCAR11-ABI2; 30 µM, not esterase-treated",revealed an ABA-agonistic activity
same,Activation of the ABA response compared to ABA,"RCAR11-ABI2; dose-dependent, 0.1-30 µM",comparable activity to ABA
same,Reporter induction relative to ABA,RCAR8/PYL5-ABI2; 1 µM exogenous ligand,no significant reporter regulation
same,Higher level required for induction value comparable to 1 µM ABA,"RCAR8/PYL5-ABI2; yeast, RCAR8-ABI2",> 30 x
same,Induction of ABA signaling compared to ABA,[1],ABA-like activity
